Laboratory results published in paper PMC6797721, “Unveil the Anticancer Potential of Limomene Based Therapeutic Deep Eutectic Solvents” (Scientific Reports, 2019).

Assays:
Assay type in all cases: cell-based, Human
Caco-2 cells = assay: Cytotoxicity assay (MTS) in confluent non-differentiated Caco-2 cells; conditions: isolated compounds; Caco-2, 24 hours, mean ± SD
Method: (§1) Human Caco-2 and HT29 cell lines were obtained from Deutsche Sammlung von Mikroorganismen und Zellkulturen (DSMZ, Germany) and American Type Culture Collection (ATCC, USA), respectively. These cell lines were cultured in RPMI 1640 medium supplemented with 10% of heat-inactivated fetal bovine serum (FBS) and 1% […] (PS). Cells were maintained at 37°C with 5% CO2 in a humidified incubator and routinely grown as a monolayer in 75 cm^2 culture flasks. The cell culture medium and supplements were purchased from Invitrogen (Gibco, Invitrogen Corporation, UK). Cytotoxicity assay was performed using confluent and non-differentiated Caco-2 cells, a model considered to assess the effect of chemical/food compounds and nano/microparticles on the intestinal function since it shares characteristics of the enterocytes. The assay was performed as previously described by Rodrigues et al.[71]. Briefly, Caco-2 cells were seeded into 96-well plates at a density of 2 × 10^4 cells/well and allowed to grow for 7 days, with medium renewal every 48 hours. At day 7, cells were incubated with the samples diluted in culture medium. Cells incubated only with culture medium were considered as control. After 24 hours, cells were washed once with PBS (Sigma-Aldrich, USA) and cell viability was assessed using CellTiter 96® AQueous One Solution Cell Proliferation Assay (Promega, USA) containing MTS reagent, according to manufacturer's instructions. The absorbance was measured at 490 nm using a Spark® 10 M Multimode Microplate Reader (Tecan Trading AG, Switzerland) and cell viability was expressed in terms of percentage of living cells relatively to the control. At least three independent experiments were performed in triplicate. All data were expressed as mean ± standard errors (SD). GraphPad Prism 6 software was used to calculate EC50 values (the concentration of sample necessary to decrease 50% of cell population) and to analyse significant differences between data set through One-Way Analysis of Variance (ANOVA) following Dunnett's multiple comparison tests.

HT29 cells [1] = assay: Antiproliferative assay in HT29 cell monolayer (MTS); conditions: isolated compounds, HT29, 24 hours, mean ± SD
Method: Human Caco-2 and HT29 cell lines were obtained from Deutsche Sammlung von Mikroorganismen und Zellkulturen (DSMZ, Germany) and American Type Culture Collection (ATCC, USA), respectively. These cell lines were cultured in RPMI 1640 medium supplemented with 10% of heat-inactivated fetal bovine serum (FBS) and 1% […] (PS). Cells were maintained at 37°C with 5% CO2 in a humidified incubator and routinely grown as a monolayer in 75 cm^2 culture flasks. The cell culture medium and supplements were purchased from Invitrogen (Gibco, Invitrogen Corporation, UK). Antiproliferative effect of […] and standard compounds was evaluated in HT29 cells, as described elsewhere. Briefly, cells were seeded at a density of 1 × 10^4 cells/well in 96-well culture plates. After 24 hours cells were incubated with different concentrations of the samples diluted in culture medium. Cells incubated only with culture medium were considered as control. Cell proliferation was measured after 24 hours using MTS, as mentioned above. Results were expressed in terms of percentage of living cells relatively to the control. At least three independent experiments were performed in triplicate. All data were expressed as mean ± standard errors (SD). GraphPad Prism 6 software was used to calculate EC50 values (the concentration of sample necessary to decrease 50% of cell population) and to analyse significant differences between data set through One-Way Analysis of Variance (ANOVA) following Dunnett's multiple comparison tests.

[2] = Cytotoxicity assay (MTS) in confluent non-differentiated Caco-2 cells; conditions: human, confluent, non-differentiated Caco-2 cells; isolated compounds; Caco-2, 24 hours, mean ± SD
Method: as §1

HT29 cells [3] = assay: Cell cycle assessment by flow cytometry; conditions: HT29, 24 hours, non-cytotoxic concentrations
Method: HT29 cell line was seeded at a density of 1 × 10^6 cells in a 25 cm^2 culture flask for 24 hours. Then, cells were incubated in different concentrations of the samples diluted in culture medium and culture medium alone (as control) for 24 hours. For flow cytometry analysis of DNA content, bare nuclei were prepared as described elsewhere. Briefly, cells were detached from the culture flasks with trypsin-EDTA 0.5% and washed one time with cold PBS. Finally, 1 × 10^6 cells were re-suspended in 1 mL of staining solution containing […] of Propidium Iodide (Sigma-Aldrich, USA), 1.5% (v/v) of Triton X-100 (Sigma-Aldrich, USA), 0.7 U/mL of DNase/protease-free Ribonuclease A (Thermo Scientific, USA) and 0.01 M of NaCl, followed by incubation at room temperature in the dark for 2 hours. Cell cycle was assessed by flow cytometry, using a CyFlow space (Partec GmbH) instrument, registering 30.000 events/sample as described previously.

HT29 cells [4] = assay: Caspase-3 activity induction (apoptosis); conditions: HT29, 24 hours, 2 mM
Method: Apoptosis was evaluated by caspase-3 activity using NucView488TM and MitoView633TM Apoptosis Assay Kit (Biotium, USA) that allows the staining of living cells with a far-red fluorescent dye MitoView633TM, while the intracellular caspase-3/7 activity and cells nuclei morphological changes were stained with bright green fluorescent dye NucView488TM. HT29 cells were seeded at a density of 40.000 cell/cm^2 at 24-well plate for 24 hours. Then, cells were incubated another 24 hours with different concentrations of the samples diluted in culture medium and culture medium alone (as control). Staining was performed with 200 μL/well of culture medium containing 1 μL of NucView488TM and 1 μL of MitoView633TM for 2 hours.

EC50 (HT29 cells [1]; Homo sapiens, HT-29)	Molecule	EC50 (Caco-2 cells)	EC50 (HT29 cells [1])	EC50 at 24 h [2]	Effect on cell cycle (HT29 cells [3])	Induction of apoptosis (caspase-3 activity) (HT29 cells [4])
–	CCCCCCCCCC(=O)O [CA, Capric acid]	1330 ± 223 µM	341 ± 81 µM	–	–	–
2350 ± 88 µM	CC(C)Cc1ccc(C(C)C(=O)O)cc1 (centres unmarked) [IBU, Ibuprofen]	–	–	2890 ± 59 µM	promoted cell cycle arrest in G1-phase	–
4730 µM	CC1CCC(C(C)C)C(O)C1 (centres unmarked) [Menthol, menthol]	–	–	8080 ± 810 µM	–	–
–	S-Limonene	2640 ± 108 µM	661 ± 25 µM	–	promoted cell cycle arrest in G1-phase	capable of inducing apoptosis via caspase-3 activity
